Earlier results, collected in paper PMC3065533 (Journal of nuclear medicine : official publication, Society …, 2011).

Biological target: melanocortin-1 (MC1) receptor (Mus musculus, UniProt Q01727)
Conditions: stated in methods without reference

melanocortin-1 (MC1) receptor, sequence (Q01727 whole entry): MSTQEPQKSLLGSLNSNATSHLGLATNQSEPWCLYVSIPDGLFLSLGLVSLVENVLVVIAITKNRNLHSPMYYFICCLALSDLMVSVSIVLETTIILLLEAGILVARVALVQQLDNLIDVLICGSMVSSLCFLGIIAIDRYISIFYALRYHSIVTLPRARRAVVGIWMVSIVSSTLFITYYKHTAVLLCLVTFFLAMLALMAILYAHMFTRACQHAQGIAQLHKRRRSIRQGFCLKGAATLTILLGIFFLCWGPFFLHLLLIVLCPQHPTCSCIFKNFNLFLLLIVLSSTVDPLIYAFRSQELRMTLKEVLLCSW

NDP-MSH
MC1 receptor binding affinity (in words): picomolar
